Entries after “also recorded” stand apart in the source; their conditions may differ. Where a SMILES comes first, the peptide text is derived from it. The star is where a group is joined. Cbz = O=C(OCc1ccccc1)*; CH2F = FC*
Key:
L929 cells = test: TNFα-induced CICD of L929 cells, ATP assay; type: cell-based, mouse; details: no caspase inhibitor
Description: Cell viability was determined using ATP-Lite-M ATP assay (Packard). The values represent viability relative to the control lacking TNFα, which was set as 100% viability.
Cell viability in this and subsequent panels was determined by ATP-based viability assay. Numbers represent percentages of the live cells normalized to those in the untreated control wells. Throughout, error bars represent standard deviations. […] Numbers represent viability normalized to that of the corresponding compound-treated cells in the absence of FasL. […] Numbers represent viability normalized to that of the corresponding compound-treated cells in the absence of dimerizer. […] Cells were treated with TNFα (E, F, H), zVAD.fmk (E, F), or CHX (F) for 16 (F) or 24 (E, H) hours. Numbers represent viability normalized to that of the compound-treated cells in the absence of TNFα.

BALB/c 3T3 cells = test: CICD of BALB/c 3T3 cells induced by TNFα/zVAD.fmk; type: cell-based, mouse
Jurkat T cells = test: Necrosis (CICD) of Jurkat T cells induced by Fas ligand, cycloheximide and zVAD, ATP assay; type: cell-based, human; details: FasL/CHX/zVAD
Description: Jurkat cells were treated with 5 ng/ml of FasL without (A) or with cyclohexamide (CHX) (B) to induce apoptosis, or 5 ng/ml FasL, 1 μg/ml of CHX and 100 μM of zVAD.fmk to induce CICD (B). […] Cell viability was determined after 24 hours of incubation with indicated reagents using CellTiter-Glo ATP assay. The values represent viability relative to the control Jurkat cells without the treatment of FasL, which was set as 100% viability.
FIG. 34A is a graph showing the results of treating Jurkat T cells with Fas ligand (5 ng/ml), cyclohexamide (1 μg/ml) and zVAD (100 μM) in the presence of the indicated amounts of anti-necrotic compounds (4) and (5). Viability was determined 36 hours later using an ATP assay. The viability values are relative to the samples lacking Fas ligand, which were used as 100% viability controls. FIG. 34B is a graph as in FIG. 34A, in which the anti-necrotic compounds are (19) and (20).
Compounds were also tested in another necrosis assay utilizing human Jurkat T cells, Fas ligand to induce cell death, and zVAD to inhibit the apoptosis pathway. After 36 hours, cell viability was measure by the commercial CellTiter ATP cell viability assay (Promega).

[1] = system: FADD-deficient Jurkat T cells treated with TNF-α; test: Inhibition of necroptosis (CICD) in FADD-deficient Jurkat T cells treated with TNF-α, ATP-based viability; type: cell-based, human; details: for antinecroptotic (anti-CICD) activity, in words: FADD-deficient Jurkat cells, TNFα
U-937 cells = test: Necrosis of low density U-937 cells induced by zVAD-fmk and DMSO, ATP levels; type: cell-based, human; details: U-937 1×10^5 cells/ml, 72 hours
Description: Methods for the identification of chemical compounds that decrease cell necrosis induced, for example, by zVAD-fmk/DMSO at a low cell density (e.g., 1×10^5 cells/ml) are achieved essentially as described above, except, the inducer of necrosis is zVAD-fmk/DMSO, rather than zVAD-fmk/TNFα.
Exposure of low density U-937 cells (1×10^5 cells/ml) to zVAD-fmk (100 μM) and DMSO (0.5%) for 72 hours results in cell death by necrosis. The compounds identified to decrease cell necrosis triggered by zVAD-fmk and TNFα, compounds 115807, 115681, 210227, and 215686 from the ChemBridge chemical library, were also evaluated for their ability to decrease cell necrosis induced by zVAD-fmk and DMSO. The cells (1×10^5 cells/ml) were first exposed to zVAD-fmk, and then thirty minutes later to the above-identified small molecules that decrease necrosis. After an additional 30 minutes, the cells were exposed to DMSO. 72 hours after exposure to the compounds, cellular ATP levels were measured, as described above.

U937 cells = test: Necrosis of U937 cells induced by TNFα and zVAD.fmk (primary and secondary screen), ATP assay; type: cell-based, human; details: U937, 72 hours
Description: We plated U937 cells in 384-well plates at 5,000-10,000 cells per well in 40-μl phenol red-free RPMI 1640 medium containing 100 μM zVAD.fmk and 40 ng ml^−1 human TNFα using a Multidrop dispenser (Thermo Electron). We added 100 nl of the DiverSetE (5 mg ml^−1 in DMSO, Chembridge) using a Seiko-based custom-built pin transfer robot (Institute of Chemistry and Cell Biology, Harvard Medical School). After 72 hours, we assessed cell viability using a luminescence-based ATP assay (ATPLite-M, PerkinElmer). We also dispensed cells not treated with TNFα in each plate as a positive control. We purchased Nec-1 and other preliminary positive hits from Chembridge for individual retesting.
Using a known paradigm of death receptor mediated caspase-independent cell death in human U937 cells, we established a high-throughput screen in 384 well format for small molecule inhibitors of caspase-independent cell death (CICD). In this system, U937 cells were induced to undergo CICD in the presence of TNFα and zVAD.fmk, and the rate of cell death was determined by an ATP-Lite-M assay, a commercial luminescence-based assay measuring cellular ATP levels (Packard). U937 cells were chosen because these cells can be induced to undergo CICD very efficiently upon TNFα/zVAD treatment in the absence of additional, stress-inducing sensitizing stimuli, such as CHX, making this system perfectly suited for reliable identification of CICD inhibitors. Furthermore, rapid suspension growth kinetics of U937 cells results in the availability of large quantities of cells, which translates into robust signals ideal for high throughput screening. ATP-Lite-M assay was chosen because among all the different assay systems tested, it gives the most consistent and robust signal, which is also critical for high throughput screening. Exposure of U937 cells to TNFα alone led to partial cell death, whereas co-treatment with TNFα and caspase inhibitor zVAD.fmk produced significant increase in the amount of cell death and ATP loss consistent with the published observations. In addition, in the presence of zVAD.fmk, the morphology of cell loss changed from apoptosis with cell shrinkage, nuclear fragmentation, membrane blebbing to necrosis, characterized by cell swelling, increase in cytosolic density, and early loss of plasma membrane integrity. Other cell death assays, such as an MTT assay (mitochondrial metabolism) and Sytox assay (permeability of the plasma membrane), were used as alternative means to validate the screen, and consistently produced results similar to those obtained using ATP-Lite-M assay, which confirmed that the ATP-Lite-M assay can be used to accurately measure the extent of CICD.
In a primary screen, U-937 cells (5×10^5 or 7.5×10^5 cells/ml) were first exposed to zVAD-fmk (100 μM). Thirty minutes later the same cells were exposed to a chemical compound from the library (5 mg/ml, dissolved in 0.1-0.5 μl of DMSO, giving a final DMSO concentration of 0.3% to 1.5%). After an additional thirty minutes, TNFα (40 ng/ml) was added to the cell culture medium. The cells were then incubated at 37 C for 72 hours, and were then assayed for cellular ATP levels. […] Compounds which maintained cellular ATP levels were compounds which blocked necrosis triggered by zVAD-fmk and TNFα.
In a secondary screen, the compounds identified from the first screen, above, to decrease necrosis induced by zVAD-fmk and TNFα were assayed for their potency. Serial dilution of each chemical compound was performed and the compounds were administered to U-937 cells, as per the primary screen. The concentrations of each compound were 70 μM, 23 μM, 8 μM, and 2.5 μM. The level of necrosis occurring in response to zVAD-fmk, TNFα, and the various concentrations of chemical compounds was assayed as described above for the primary screen.

CD8+ cells = test: Activation and proliferation of CD8+ cytotoxic T lymphocytes (CTL) suppressed by zVAD.fmk; type: cell-based, mouse; details: 100 μM zVAD.fmk, 30 μM compound
Description: Numbers of cells were determined using FACS analyses. Cell numbers are normalized to the number of cells in unstimulated control, which was set as 100%. […] Cells were stained with αCD8^+-FITC antibody (Pharmingen) and CD8^+ cell numbers were determined by FACS. Cell numbers are normalized to the number of cells in unstimulated control, which was set as 100%. Percentages of dead cells (line) was determined by co-staining cells with propidium iodide.
Values represent fold increase over unstimulated control.
Cells were stained with αCD8^+-FITC antibody (Pharmingen), and CD8^+ cell numbers were determined by FACS. Cell numbers are normalized to the number of cells in unstimulated control, which was set as 100%. Percentages of dead cells (line) were determined by co-staining cells with propidium iodide.

primary cortical neurons = test: Oxygen-glucose deprivation (OGD) induced death of primary cortical neurons, MAP2 cytoblot; type: cell-based; details: OGD 90 minutes, 24 hours recovery; 30 μM
Description: Cells were allowed to recover in the presence of the compounds (except for the CNQX/MK801) for 24 hours, and specific neuronal viability was determined using MAP2 cytoblot. Values represent the percentages of live cells normalized to the compound treated cells, which were maintained in glucose-containing, non-deoxygenated media. **—P<0.02. […] Cells were allowed to recover in the presence of the compounds for 24 hours, and specific neuronal viability was determined using MAP2 cytoblot. Values represent the percentages of live cells normalized to the compound treated cells, which were maintained in glucose-containing, non-deoxygenated media. **—P<0.04.

RIP1 = molecular target: T1, RIP1 (Homo sapiens, UniProt Q13546); test: In vitro kinase assay: autophosphorylation of immunoprecipitated RIP1; type: biochemical; details: radioactive ATP, 30 min at 30° C., autoradiography
T1 construct: RIP has been immunoprecipitated (IP) from lysates of WT and RIP-deficient Jurkat cells using agarose-conjugated anti-RIP antibody; endogenous in cells; host or cells: Jurkat (wild type)

[2] = system: FADD deficient Jurkat cells; details: compound in the absence of TNFα
[3] = system: Primary mouse CD4+ and CD8+ T cells; test: Activation-induced cell death (AICD) of primary CD4+ and CD8+ T cells; type: cell-based; details: re-activated CD4+ cells
Description: Cell viability was assessed using Sytox Green (Molecular Probes) (CD8) or propidium iodide exclusion (CD4) assays in FIG. 17A or ATP assay in FIG. 17B. Numbers represent the percentages of live cells normalized to the corresponding compound treated controls lacking αCD3.

T1 sequence (Q13546 whole entry): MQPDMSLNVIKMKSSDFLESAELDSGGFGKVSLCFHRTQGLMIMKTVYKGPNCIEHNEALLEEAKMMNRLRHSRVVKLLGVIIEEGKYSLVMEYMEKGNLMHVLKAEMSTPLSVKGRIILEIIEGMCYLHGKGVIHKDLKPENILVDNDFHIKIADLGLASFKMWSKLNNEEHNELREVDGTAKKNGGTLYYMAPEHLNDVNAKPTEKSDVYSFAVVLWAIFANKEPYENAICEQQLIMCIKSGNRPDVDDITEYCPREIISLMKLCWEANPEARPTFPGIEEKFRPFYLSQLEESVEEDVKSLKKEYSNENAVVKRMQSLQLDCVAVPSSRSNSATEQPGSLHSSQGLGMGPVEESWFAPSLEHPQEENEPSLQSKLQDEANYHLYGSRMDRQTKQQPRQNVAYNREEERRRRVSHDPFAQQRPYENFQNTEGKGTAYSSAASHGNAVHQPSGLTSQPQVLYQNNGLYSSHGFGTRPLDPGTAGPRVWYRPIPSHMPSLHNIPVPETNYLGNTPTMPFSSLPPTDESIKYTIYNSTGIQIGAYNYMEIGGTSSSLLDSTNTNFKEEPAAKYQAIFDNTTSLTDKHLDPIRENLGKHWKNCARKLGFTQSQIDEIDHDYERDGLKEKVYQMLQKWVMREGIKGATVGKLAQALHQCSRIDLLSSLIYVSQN

CCCNC(=O)[C@H]1O[C@@H]1C(=O)N[C@H](C(=O)N1CCC[C@H]1C(=O)OC)[C@@H](C)CC [Ca-074-Me, reference compound]
protection of L929 cells from TNFα-induced CICD, in words (L929 cells): neither these compounds nor geldanamycin work in L929 cells | inhibition of CICD in 3T3 cells, in words (BALB/c 3T3 cells): inhibits CICD in Jurkat and 3T3 cells | inhibition of CICD/necrosis of Jurkat cells, in words (Jurkat T cells): inhibits CICD in Jurkat and 3T3 cells

Cn1cnc(N)c2ncnc1-2 [Compound 3MA, 3-methyladenine, reference compound]
inhibition of CICD in 3T3 cells, in words (BALB/c 3T3 cells): necroptosis proceeded normally in the presence of 3-methyladenine (3MA) | antinecroptotic (anti-CICD) activity, in words [1]: necroptosis proceeded normally in the presence of 3-methyladenine (3MA)

Cc1cc(O)c(C(=O)/C=C/c2ccc(O)c([N+](=O)[O-])c2)c(=O)o1 [Compound 115681]
decrease of necrosis induced by zVAD-fmk/DMSO, in words (U-937 cells): also decreased necrosis induced by zVAD-fmk/DMSO | inhibition of necrosis induced by TNFα/zVAD.fmk, in words (U937 cells): identified to decrease necrosis in response to exposure of the cell to zVAD-fmk and TNFα

CN1C(=O)C(Cc2c[nH]c3ccccc23)NC1=S (stereo not shown) [Compound 115807]
decrease of necrosis induced by zVAD-fmk/DMSO, in words (U-937 cells): also decreased necrosis induced by zVAD-fmk/DMSO | inhibition of necrosis induced by TNFα/zVAD.fmk, in words (U937 cells): identified to decrease necrosis in response to exposure of the cell to zVAD-fmk and TNFα

COc1ccc(/C=C/C(=O)/C=C/c2ccc(OC)c(OC)c2)cc1OC [Compound 215686]
decrease of necrosis induced by zVAD-fmk/DMSO, in words (U-937 cells): also decreased necrosis induced by zVAD-fmk/DMSO | inhibition of necrosis induced by TNFα/zVAD.fmk, in words (U937 cells): identified to decrease necrosis in response to exposure of the cell to zVAD-fmk and TNFα

O=C1NC(=S)NC1Cc1c[nH]c2ccccc12 (stereo not shown) [Nec-1i]
restoration of CTL activation/proliferation suppressed by zVAD.fmk, in words (CD8+ cells): does not affect T cell proliferation; also recorded: failed to restore T cell proliferation | protection from OGD-induced neuronal death, in words (primary cortical neurons): failed to rescue neuronal cell death | antinecroptotic (anti-CICD) activity, in words [1]: does not inhibit CICD in vitro; also recorded: completely abolished antinecroptotic activity | inhibition of RIP1 autophosphorylation, in words (RIP1): showed significantly reduced activity in inhibiting RIP1 autophosphorylation

COc1ccc2c(c1)C1=NN(C(C)=O)C(c3ccc(F)cc3)C1CC2 (stereo not shown) [Nec-3]
LD50 [2]: 143 µM | EC50 ([1]; Homo sapiens, Jurkat, concentration required to rescue 50% of cell death, TNFα for 36 hours, ATP assay, read-out: EC50): 970 nM | decrease of necrosis induced by zVAD-fmk/DMSO, in words (U-937 cells): also decreased necrosis induced by zVAD-fmk/DMSO | inhibition of necrosis induced by TNFα/zVAD.fmk, in words (U937 cells; listed as 140): identified as an inhibitor of necrosis | inhibition of necrosis induced by TNFα/zVAD.fmk, in words (U937 cells; listed as 210227): identified to decrease necrosis in response to exposure of the cell to zVAD-fmk and TNFα

COC(=O)C[C@H](NC(=O)[C@H](C)NC(=O)[C@@H](NC(=O)OCc1ccccc1)C(C)C)C(=O)CF [zVAD.fmk, N-benzyloxycarbonyl-Val-Ala-Asp-(OMe) fluoromethyl ketone, reference compound] (Cbz-Val-Ala-Asp(OMe)-CH2F)
effect on AICD, compound alone, in words [3]: only partially protective | protection from OGD-induced neuronal death, in words (primary cortical neurons): did not detect any protection by zVAD.fmk

Source: patent publication US20130158024A1, “TRICYCLIC NECROSTATIN COMPOUNDS” (priority 2005, published 2013)
